Data reported in patent US9932627B2, “Method for determination of the length of the G-tail sequence and kit for the method” (HIROSHIMA UNIVERSITY, priority 2005, dated 2018).

Columns and labels:
SiHa cancer cell [1] = assay: G tail length measurement by G tail HPA on nondenatured genomic DNA of treated cells; type: cell-based, human; conditions: treated with telomestatin (5 μm) for 48 hours, nondenatured DNA 5 μg, control C = 220
Description: (§1) The hydrolysis of the AE in an unhybridized probe was performed by charging 300 μL of a hydrolysis buffer (0.6 mol/L tetrasodium borate buffer containing 50 mL/L of Triton X-100, pH 8.5) into each reaction tube, stirring the mixture vigorously with a Vortex mixer, and incubating the mixture at 60° C. for 10 minutes. The AE in the hybridized probe was not hydrolyzed under the above-described condition. These tubes were cooled on ice for 1 minute or more, and the chemiluminescence in each tube was measured with a luminometer (trade name: Leader 1, manufactured by Gene Probe Inc.) for 2 seconds.
For the confirmation of nondenatured genomic DNA dose response by the measuring method according to the invention, SiHa cancer cell line-derived nondenatured genomic DNA samples in various amounts (1 μg, 3 μg, 5 μg, 10 μg and 20 μg) and the AE-labeled G tail HPA probe in an amount of 3×10^6 rlu were hybridized with each other. Specifically for detection of the telomere 3′-tail (G tail) in genomic DNA, the total amount of the DNA solution in a Falcon 352053 tube (trade name) was adjusted to 100 μL with sterile water or a TE buffer (10 mM Tris/HCl, 1 mM EDTA, pH 8.0). […]

[2] = tested on: 90p normal mammary epithelial cell; assay: as above; type: cell-based; conditions: treated with telomestatin (5 μm) for 48 hours, nondenatured DNA 5 μg, control C = 98
Description: as §1
(§2) For the confirmation of nondenatured genomic DNA dose response by the measuring method according to the invention, SiHa cancer cell line-derived nondenatured genomic DNA samples in various amounts (1 μg, 3 μg, 5 μg, 10 μg and 20 μg) and the AE-labeled G tail HPA probe in an amount of 3×10^6 rlu were hybridized with each other. Specifically for detection of the telomere 3′-tail (G tail) in genomic DNA, the total amount of the DNA solution in a Falcon 352053 tube (trade name) was adjusted to 100 μL with sterile water or a TE buffer (10 mM Tris/HCl, 1 mM EDTA, pH 8.0). The AE-labeled G tail HPA probe in an amount of 3×10^6 rlu dissolved in 100-μL of the hybridization buffer was added to the DNA solution, and the mixture was stirred thoroughly with a Vortex mixer and incubated at 60° C. for 20 minutes. The hydrolysis of the AE in unhybridized probe and the detection of the chemiluminescence were performed under a condition similar to that in <1-2>.
(§3) In the present invention, the nondenatured genomic DNA may not be isolated for use, but the nondenatured genomic DNA used in the confirmation test <4-1> was previously isolated in the following manner: The nondenatured genomic DNA used for G tail length measurement was isolated from each cell line by using the phenol-chloroform extraction method. Specifically, cells were centrifuged in an Eppendorf-micro centrifuge tube at 6,000 rpm and 4° C. for 5 minutes, to give a pellet in the microtube. The pellet was washed once with PBS(−) and resuspended in an extraction buffer containing 10 mM Tris buffer (pH 7.6), 150 mM NaCl and NP-40, to a final concentration of 0.5%. After proteinase K digestion, phenol-chloroform extraction was performed twice. The genomic DNA was precipitated with ethanol, treated with RNase A, and then, dissolved in a TE buffer. […]

HeLa cancer cell [3] = assay: as above; type: cell-based; conditions: treated with telomestatin (5 μm) for 48 hours, nondenatured DNA 5 μg, control C = 126
Description: as §1, §2, §3

MCF-7 cancer cell [4] = assay: as above; type: cell-based; conditions: treated with telomestatin (5 μm) for 48 hours, nondenatured DNA 5 μg, control C = 212
Description: as §1, §2, §3

[5] = tested on: MRC-5-hTERT normal fibroblast; assay: as above; type: cell-based; conditions: treated with telomestatin (5 μm) for 48 hours, nondenatured DNA 5 μg, control C = 96
Description: as §1, §2, §3

SiHa cancer cell [6] = assay: Entire telomere length by telomere HPA on denatured DNA (JP 2001-95586, Comparative Example); type: cell-based, human; conditions: treated with telomestatin (5 μm) for 48 hours, denatured DNA 0.5 μg, control C = 4500
Excerpt: (§4) The dominant negative allelic gene (TRF2^ΔBΔM) was infected to various cells (HeLa cancer cell, SiHa cancer cell, MCF-7 cancer cell, MRC-5-hTERT normal fibroblast, and 90p normal mammary epithelial cell) according to a method similar to that in <9-3>; The nondenatured DNA was isolated from each cell (HeLa cancer cell, SiHa cancer cell, MCF-7 cancer cell, MRC-5-hTERT normal fibroblast, and 90p normal mammary epithelial cell) according to a method similar to that in <4-2>; The nondenatured DNA (5 μg) was used in the G tail measuring method according to the present invention for measurement of the G tail length; and, as a Comparative Example, the measuring method described in Japanese Unexamined Patent Publication No. 2001-95586 was applied to each denatured DNA (0.5 μg) for measurement of the entire telomere length. ExoI treatment was performed similarly to the method described in <4-3> and culture of the cells used, similarly to the method described in <9-2>.
FIG. 11a is a graph showing the results of measuring G tail by the measuring method according to the invention. FIG. 11b is a graph showing the results of measuring the total telomere length by the measuring method described in Japanese Unexamined Patent Publication No. 2001-95586 as a Comparative Example. […]

[7] = tested on: 90p normal mammary epithelial cell; assay: as above; type: cell-based; conditions: treated with telomestatin (5 μm) for 48 hours, denatured DNA 0.5 μg, control C = 3500
Excerpt: as §4
(§5) FIG. 11a is a graph showing the results of measuring G tail by the measuring method according to the invention. FIG. 11b is a graph showing the results of measuring the total telomere length by the measuring method described in Japanese Unexamined Patent Publication No. 2001-95586 as a Comparative Example. In FIG. 11a, “C” represents a control; “T” represents a cell treated with a G tail-shortening medicine telomestatin (5 μm) for 48 hours; represents a ExoI-treated cell; and − represents an untreated cell. […] In FIG. 11b, “C” represents a control; and “T” represents a cell previously treated with a G tail-shortening medicine telomestatin (5 μm) for 48 hours.
(§6) Thus apparently in the measuring method described in Patent Document 1 (Japanese Unexamined Patent Publication No. 2001-95586), the G tail length gives signal intensity only at a noise level within the range of the operation and measurement error, prohibiting G tail measurement. Then, the values on the ordinate in FIG. 11a were converted to average G tail lengths by using the calibration curve shown in FIG. 2 and the values on the ordinate in FIG. 11b to the entire telomere lengths, to give the following results shown in Table 4.

HeLa cancer cell [8] = assay: as above; type: cell-based; conditions: treated with telomestatin (5 μm) for 48 hours, denatured DNA 0.5 μg, control C = 4700
Excerpt: as §4, §5, §6

MCF-7 cancer cell [9] = assay: as above; type: cell-based; conditions: treated with telomestatin (5 μm) for 48 hours, denatured DNA 0.5 μg, control C = 4000
Excerpt: as §4, §5, §6

[10] = tested on: MRC-5-hTERT normal fibroblast; assay: as above; type: cell-based; conditions: treated with telomestatin (5 μm) for 48 hours, denatured DNA 0.5 μg, control C = 6800
Excerpt: as §4, §5, §6

Cc1oc2nc1-c1nc(co1)-c1nc(co1)-c1nc(co1)-c1nc(co1)-c1nc(co1)C1=NC(CS1)c1nc-2c(C)o1 (stereo not shown) [telomestatin]
Average G tail length (nt) (SiHa cancer cell [1]): 121 nt
Average G tail length (nt) [2]: 96 nt
Average G tail length (nt) (HeLa cancer cell [3]): 89 nt
Average G tail length (nt) (MCF-7 cancer cell [4]): 162 nt
Average G tail length (nt) [5]: 96.5 nt
Entire telomere length (nt) (SiHa cancer cell [6]): 4600 nt
Entire telomere length (nt) [7]: 3450 nt
Entire telomere length (nt) (HeLa cancer cell [8]): 4600 nt
Entire telomere length (nt) (MCF-7 cancer cell [9]): 3900 nt
Entire telomere length (nt) [10]: 6750 nt
